According to PubChem BioAssay AID1845209 (Molecular Pharmacology Branch, DTP, NCI, 2023):

System: NCI-H211 tumor spheroids, viability percent test/control
Test: Anticancer human tumor NCI-H211 cell line growth inhibition;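 further: spheroids exposed to agents for seven days before readout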
Details: spheroids with HUVEC and MSC; for IC50: curve of first compound; for viability, T/C: stronger effect = lower value
Method in brief: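 Complex spheroids of malignant cells with endothelial cells and mesenchymal stem cells; agents alone or combined, from near clinical Cmax (or 10 microM if unknown) down in half-log steps, 0.25% DMSO final.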

[1] = second compound 30 pM, first compound 0.0316 µM
[2] = second compound 30 pM, first compound 0.1 µM
[3] = second compound 30 pM, first compound 0.316 µM
[4] = second compound 30 pM, first compound 1 µM
[5] = second compound 30 pM, first compound 3.16 µM
[6] = second compound 30 pM, first compound 10 µM
[7] = second compound 94.9 pM, first compound 0.0316 µM
[8] = second compound 94.9 pM, first compound 0.1 µM
[9] = second compound 94.9 pM, first compound 0.316 µM
[10] = second compound 94.9 pM, first compound 1 µM
[11] = second compound 94.9 pM, first compound 3.16 µM
[12] = second compound 94.9 pM, first compound 10 µM
[13] = second compound 0.0003 µM, first compound 0.0316 µM
[14] = second compound 0.0003 µM, first compound 0.1 µM
[15] = second compound 0.0003 µM, first compound 0.316 µM
[16] = second compound 0.0003 µM, first compound 1 µM
[17] = second compound 0.0003 µM, first compound 3.16 µM
[18] = second compound 0.0003 µM, first compound 10 µM
[19] = second compound 0.000949 µM, first compound 0.0316 µM
[20] = second compound 0.000949 µM, first compound 0.1 µM
[21] = second compound 0.000949 µM, first compound 0.316 µM
[22] = second compound 0.000949 µM, first compound 1 µM
[23] = second compound 0.000949 µM, first compound 3.16 µM
[24] = second compound 0.000949 µM, first compound 10 µM
[25] = second compound 0.003 µM, first compound 0.0316 µM
[26] = second compound 0.003 µM, first compound 0.1 µM
[27] = second compound 0.003 µM, first compound 0.316 µM
[28] = second compound 0.003 µM, first compound 1 µM
[29] = second compound 0.003 µM, first compound 3.16 µM
[30] = second compound 0.003 µM, first compound 10 µM

SMILES	IC50 (second compound 30 pM)	IC50 (second compound 94.9 pM)	IC50 (second compound 0.0003 µM)	IC50 (second compound 0.000949 µM)	IC50 (second compound 0.003 µM)	viability, T/C [1]	viability, T/C [2]	viability, T/C [3]	viability, T/C [4]	viability, T/C [5]	viability, T/C [6]	viability, T/C [7]	viability, T/C [8]	viability, T/C [9]	viability, T/C [10]	viability, T/C [11]	viability, T/C [12]	viability, T/C [13]	viability, T/C [14]	viability, T/C [15]	further results
CC(C)n1c(=O)n(C)c2cnc3cc(F)c(-c4ccc(OCCCN5CCCCC5)nc4)cc3c21 + COc1cc2c(cc1O)CCNC21CSC2c3c(OC(C)=O)c(C)c4c(c3C(COC1=O)N1C(O)C3Cc5cc(C)c(OC)c(O)c5C(C21)N3C)OCO4	< 31.6 nM	< 31.6 nM	< 31.6 nM	< 31.6 nM	< 31.6 nM	27%	15.3%	15.5%	12.7%	9.25%	0.77%	0.99%	0.88%	1.06%	0.96%	0.8%	0.42%	0.68%	0.74%	0.77%	viability, T/C [16]: 1.03%; viability, T/C [17]: 0.82%; viability, T/C [18]: 0.31%; viability, T/C [19]: 0.69%; viability, T/C [20]: 0.69%; viability, T/C [21]: 0.71%; viability, T/C [22]: 0.72%; viability, T/C [23]: 0.7%; viability, T/C [24]: 0.5%; viability, T/C [25]: 0.12%; viability, T/C [26]: 0.17%; viability, T/C [27]: 0.11%; viability, T/C [28]: 0.1%; viability, T/C [29]: 0.12%; viability, T/C [30]: 0.16%
CC1COCCN1c1cc(-c2ccnn2C)c2ccnc(-c3ccn[nH]3)c2n1 (stereo not given) + COc1cc2c(cc1O)CCNC21CSC2c3c(OC(C)=O)c(C)c4c(c3C(COC1=O)N1C(O)C3Cc5cc(C)c(OC)c(O)c5C(C21)N3C)OCO4	< 31.6 nM	< 31.6 nM	< 31.6 nM	< 31.6 nM	< 31.6 nM	0.76%	0.64%	0.52%	0.4%	0.43%	0.49%	0.75%	0.74%	0.62%	0.38%	0.35%	0.42%	0.75%	0.89%	0.57%	viability, T/C [16]: 0.78%; viability, T/C [17]: 0.3%; viability, T/C [18]: 0.36%; viability, T/C [19]: 0.61%; viability, T/C [20]: 0.63%; viability, T/C [21]: 0.48%; viability, T/C [22]: 0.81%; viability, T/C [23]: 0.36%; viability, T/C [24]: 0.71%; viability, T/C [25]: 0.1%; viability, T/C [26]: 0.1%; viability, T/C [27]: 0.31%; viability, T/C [28]: 0.1%; viability, T/C [29]: 0.46%; viability, T/C [30]: 0.54%
COc1cc(C)[nH]c(=O)c1CN1CCc2c(Cl)cc(C(OC)C3COC3)c(Cl)c2C1=O (stereo not given) + COc1cc2c(cc1O)CCNC21CSC2c3c(OC(C)=O)c(C)c4c(c3C(COC1=O)N1C(O)C3Cc5cc(C)c(OC)c(O)c5C(C21)N3C)OCO4	> 10000 nM	< 31.6 nM	< 31.6 nM	< 31.6 nM	< 31.6 nM	94.3%	98.4%	95%	90.2%	81.9%	77.2%	13.8%	22.7%	22.8%	16%	10.4%	5.32%	0.73%	0.85%	0.77%	viability, T/C [16]: 0.69%; viability, T/C [17]: 0.78%; viability, T/C [18]: 0.85%; viability, T/C [19]: 0.63%; viability, T/C [20]: 0.69%; viability, T/C [21]: 0.66%; viability, T/C [22]: 1.2%; viability, T/C [23]: 0.82%; viability, T/C [24]: 0.76%; viability, T/C [25]: 0.12%; viability, T/C [26]: 0.11%; viability, T/C [27]: 0.11%; viability, T/C [28]: 0.1%; viability, T/C [29]: 0.11%; viability, T/C [30]: 0.56%
COc1ccc([C@@H](O)c2cc(-c3ncnc4cc(N5CCOCC5)ccc34)c(F)cc2Cl)nn1 + COc1cc2c(cc1O)CCNC21CSC2c3c(OC(C)=O)c(C)c4c(c3C(COC1=O)N1C(O)C3Cc5cc(C)c(OC)c(O)c5C(C21)N3C)OCO4	583 nM	< 31.6 nM	< 31.6 nM	< 31.6 nM	< 31.6 nM	104%	91.7%	71.9%	33%	1.14%	0.29%	20.6%	12.6%	4.86%	0.5%	0.35%	0.2%	0.7%	0.77%	0.73%	viability, T/C [16]: 0.58%; viability, T/C [17]: 0.36%; viability, T/C [18]: 0.11%; viability, T/C [19]: 0.63%; viability, T/C [20]: 0.64%; viability, T/C [21]: 0.51%; viability, T/C [22]: 0.16%; viability, T/C [23]: 0.02%; viability, T/C [24]: 0.11%; viability, T/C [25]: 0.1%; viability, T/C [26]: 0.11%; viability, T/C [27]: 0.1%; viability, T/C [28]: 0.1%; viability, T/C [29]: 0.1%; viability, T/C [30]: 0.16%
Cc1cc(C)c(CNC(=O)c2cc(-c3ccc(CN4CCOCC4)cc3)cc3c2cnn3C2CCCC2)c(=O)[nH]1 + COc1cc2c(cc1O)CCNC21CSC2c3c(OC(C)=O)c(C)c4c(c3C(COC1=O)N1C(O)C3Cc5cc(C)c(OC)c(O)c5C(C21)N3C)OCO4	2730 nM	< 31.6 nM	< 31.6 nM	< 31.6 nM	< 31.6 nM	98.1%	113%	99.7%	73.2%	48.8%	7.15%	17.6%	12.4%	13.5%	4.52%	2.44%	0.74%	0.75%	0.76%	0.76%	viability, T/C [16]: 0.76%; viability, T/C [17]: 1.22%; viability, T/C [18]: 1.03%; viability, T/C [19]: 0.66%; viability, T/C [20]: 0.82%; viability, T/C [21]: 0.75%; viability, T/C [22]: 0.96%; viability, T/C [23]: 0.65%; viability, T/C [24]: 0.68%; viability, T/C [25]: 0.13%; viability, T/C [26]: 0.11%; viability, T/C [27]: 0.11%; viability, T/C [28]: 0.61%; viability, T/C [29]: 0.4%; viability, T/C [30]: 0.33%
[2H]c1nc(C)nc([2H])c1-c1cc(NC[C@@H](C)c2cccc3c(C(=O)NC)ccnc23)ncn1 + COc1cc2c(cc1O)CCNC21CSC2c3c(OC(C)=O)c(C)c4c(c3C(COC1=O)N1C(O)C3Cc5cc(C)c(OC)c(O)c5C(C21)N3C)OCO4	> 10000 nM	< 31.6 nM	< 31.6 nM	< 31.6 nM	< 31.6 nM	103%	104%	100%	99.6%	102%	78.2%	16.1%	15.9%	19.4%	17.4%	7.6%	3.55%	0.71%	0.97%	0.84%	viability, T/C [16]: 0.85%; viability, T/C [17]: 0.8%; viability, T/C [18]: 1.01%; viability, T/C [19]: 0.83%; viability, T/C [20]: 0.71%; viability, T/C [21]: 0.61%; viability, T/C [22]: 0.65%; viability, T/C [23]: 0.74%; viability, T/C [24]: 0.72%; viability, T/C [25]: 0.21%; viability, T/C [26]: 0.21%; viability, T/C [27]: 0.19%; viability, T/C [28]: 0.19%; viability, T/C [29]: 0.19%; viability, T/C [30]: 0.23%
